Laboratory results reported in PMC6328429, “Synthesis of a benzoxazinthione derivative of tanaproget and pharmacological evaluation for PET imaging of PR expression” (EJNMMI Radiopharmacy and Chemistry, 2019).

How the values were obtained:
[1] = molecular target: T1, progesterone receptor (PR) (Homo sapiens, UniProt P06401); assay: T47D alkaline phosphatase (AP) potency assay; format: cell-based; conditions: for EC50 / T47D alkaline phosphatase assay EC50: agonist response, 48 h incubation; for EC50 / T47D alkaline phosphatase assay EC50 / IC50: average of at least n = 3 ± SD; for IC50: inhibition of progesterone
T1 construct: endogenous in cells; host or cells: T47D breast carcinoma cells
T1 sequence (P06401 1-933): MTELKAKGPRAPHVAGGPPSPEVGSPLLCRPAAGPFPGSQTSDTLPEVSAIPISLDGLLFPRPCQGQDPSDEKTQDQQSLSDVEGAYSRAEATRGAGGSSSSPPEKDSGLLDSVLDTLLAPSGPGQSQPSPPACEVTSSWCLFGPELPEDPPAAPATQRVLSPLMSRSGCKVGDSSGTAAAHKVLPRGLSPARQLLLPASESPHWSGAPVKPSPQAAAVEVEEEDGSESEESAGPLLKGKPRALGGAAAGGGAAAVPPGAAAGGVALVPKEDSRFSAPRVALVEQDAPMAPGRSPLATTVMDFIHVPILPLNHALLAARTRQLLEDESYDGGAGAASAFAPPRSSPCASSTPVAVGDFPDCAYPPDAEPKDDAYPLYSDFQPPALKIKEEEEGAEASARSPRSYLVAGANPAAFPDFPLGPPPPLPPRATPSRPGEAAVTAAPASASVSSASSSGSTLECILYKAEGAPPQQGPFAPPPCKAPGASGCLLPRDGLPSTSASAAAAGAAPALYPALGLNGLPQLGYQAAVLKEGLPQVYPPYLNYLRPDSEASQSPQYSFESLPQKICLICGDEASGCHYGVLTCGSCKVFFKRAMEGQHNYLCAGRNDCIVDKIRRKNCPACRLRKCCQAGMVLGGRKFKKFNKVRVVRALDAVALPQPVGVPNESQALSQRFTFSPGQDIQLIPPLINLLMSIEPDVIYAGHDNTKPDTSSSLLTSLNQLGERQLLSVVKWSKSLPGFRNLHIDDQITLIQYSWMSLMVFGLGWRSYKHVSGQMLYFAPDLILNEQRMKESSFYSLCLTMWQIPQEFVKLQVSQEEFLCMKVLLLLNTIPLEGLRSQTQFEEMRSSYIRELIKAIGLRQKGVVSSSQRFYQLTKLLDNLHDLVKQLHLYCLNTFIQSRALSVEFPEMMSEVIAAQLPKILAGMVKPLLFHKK
Method: The method described by Di Lorenzo et al was followed with minor adaptation (Di Lorenzo et al., [1991]). In brief, T47D breast carcinoma cells were seeded in 96-well plates at 50,000 cell/well in RPMI medium supplemented with 10% FBS. After overnight culture, the medium was changed to RPMI phenol red free containing 2% charcoal-stripped FBS. After 24 h, the cells were treated with progesterone (Sigma Aldrich, Gillingham, UK) or the library compounds. Progesterone and the test compounds were dissolved in DMSO (100%) and diluted into treatment medium to give a final DMSO (v/v) concentration of 0.1%. After incubation (48 h) the treatment was finalised by twice washing the plates with PBS. Cells were lysed by two freeze-thaw cycles (− 80 °C). Cellular alkaline phosphatase activity was determined by adding Femto ELISA-AP substrate (200 μL) and optical density measurements taken at 5 and 10 min intervals at a wavelength of 405 nm. Data was interpreted using Graphpad Prism (GraphPad, CA, USA) using the model: dose-response simulation/inhibition, log(agonist/inhibition) vs. response – variable slope (four parameters). For compounds where EC50 > 10,000, an antagonist profile was assumed and the experiment was repeated with the inclusion of progesterone (3 mM) with the library compound. Data shown in the supporting information (Additional file 1: Figure S32).

[2] = In vitro non-radioactive metabolite analysis and clearance in HLM; format: in vitro ADME, human
Method: (§1) Microsomal incubations were performed using a Hamilton Microlab Star liquid handling workstation (Hamilton Robotics, Bonaduz, Switzerland). Test compound 2 (final concentration 1 or 10 μM, 1% DMSO) was pre-incubated at 37 °C for 10 min in MLM or HLM (final concentration 1 mg/ml prepared in 10 mM PBS). Reactions were initiated by the addition of NADPH (final concentration 1 mM). Aliquots were removed from each incubation and quenched in 3 volumes of ice-cold MeOH containing internal standard olomoucine (500 nM in MeOH) at − 1, 0, 5, 15, 30 and 60 min. Incubations were conducted in singlicate. […] Terminated incubations were centrifuged at 3700 rpm at 4 °C for 30 min and supernatant taken for analysis. Microsomal incubations were analysed by liquid chromatography-tandem mass spectrometry (LC-MS/MS). This consisted of a Dionex Ultimate 3000 UHPLC system coupled to a ThermoScientific Q Exactive Plus orbitrap mass spectrometer (Thermo Fisher Scientific Inc., Waltham, USA). Chromatographic separation was achieved using an Acquity UPLC HSS T3 column (1.8 μm, 100 × 2.1 mm) (Waters, Elstree, UK) at 50 °C and a binary mobile phase gradient at a flow rate of 0.4 ml/min. Initial LC conditions comprised 10% formic acid (0.1%) in water (A), 90% methanol (B). This was ramped to […] at 12 min. Sample analysis was by positive ion electrospray ionization. The capillary voltage was 3.5 kV. Full MS/dd-MS^2 (full MS scan followed by data dependent MS/MS) and Full MS/AIF (full MS scan followed by all ion fragmentation) workflows were used in combination. Full MS was performed at a resolution of 70,000, AGC target 1 e^6; dd-MS2 at a resolution of 17,5000, AGC target 1 e^5. LC-MS response (peak area of the analyte/peak area of internal standard) was fitted to a nonlinear single exponential model using software GraphPad Prism software (v6.07, GraphPad Software, Inc., La Jolla, USA). Elimination rate constant (k) was determined and intrinsic clearance, CLint, was calculated as CLint = (V.k)/mg protein where V is the incubation volume (μl) and mg protein is the mg microsomal protein in the incubation. Identification of metabolites in microsomal incubations and elucidation of their structures was undertaken with Compound Discoverer software (v2.0.0.303, Thermo Fisher Scientific Inc., Waltham, USA).

[3] = In vitro non-radioactive metabolite analysis and clearance in MLM; format: in vitro ADME, mouse
Method: as §1

| EC50 [1] [nM] | T47D alkaline phosphatase assay EC50 [1] | IC50 [1] [nM] | Compound | also measured |
| --- | --- | --- | --- | --- |
| 0.5 |  |  | Cn1c(C#N)ccc1-c1ccc2c(c1)C(C)(C)OC(=S)N2 [TNP, Tanaproget] |  |
| 2294 ± 0.29 |  |  | CC1(C)OC(=O)Nc2ccc(-c3ccc(F)c(Cl)c3)cc21 [Compound 5, 6-(3-chloro-4-fluorophenyl)-4,4-dimethyl-1H-benzo[d][1,3]oxazin-2(4H)-one] |  |
| 432.5 ± 0.24 |  |  | CC1(C)OC(=S)Nc2ccc(-c3ccc(F)c(Cl)c3)cc21 [Compound 6, 6-(3-chloro-4-fluorophenyl)-4,4-dimethyl-1H-benzo[d][1,3]oxazine-2(4H)-thione] | fold more potent (EC50) than oxocarbamate derivative 5 ([1]; compound 6 versus 5): ~5 fold |

Further lines, the compound ahead of its results:

| Compound | EC50 [1] [nM] | T47D alkaline phosphatase assay EC50 [1] | IC50 [1] [nM] | also measured |
| --- | --- | --- | --- | --- |
| CC1(C)OC(=O)Nc2ccc(-c3ccc(F)nc3)cc21 [Compound 3, 6-(6-fluoropyridin-3-yl)-4,4-dimethyl-1H-benzo[d][1,3]oxazin-2(4H)-one] | > 10000 | did not induce an agonist response | 795 ± 0.25 |  |
| CC1(C)OC(=S)Nc2ccc(-c3ccc(F)nc3)cc21 [Compound 4, 6-(6-fluoropyridin-3-yl)-4,4-dimethyl-1H-benzo[d][1,3]oxazine-2(4H)-thione] | 3674 ± 0.08 |  |  |  |
| CC1(C)OC(=O)Nc2ccc(-c3cccnc3F)cc21 [Compound 1, 6-(2-fluoropyridin-3-yl)-4,4-dimethyl-1H-benzo[d][1,3]oxazin-2(4H)-one] | > 10000 | did not induce an agonist response | 844.8 ± 0.23 | Clearance (CLint) in HLM ([2]; HLM 1 mg/ml, NADPH 1 mM, 37 °C): comparable clearance; Metabolite identification by mass spectrometry in HLM ([2]; HLM incubation, LC-MS/MS): defluorinated species; Clearance (CLint) in MLM ([3]; MLM 1 mg/ml, NADPH 1 mM, 37 °C): comparable clearance; Metabolite identification by mass spectrometry in MLM ([3]; MLM incubation, LC-MS/MS): defluorinated species |
